Assay results: patent publication US20250188110A1, “SPECIFIC SMALL MOLECULE INHIBITORS THAT BLOCK KMT9 METHYLTRANSFERASE ACTIVITY AND FUNCTION” (ALBERT-LUDWIGS-UNIVERSITÄT FREIBURG, priority 2021, published 2025)
Where two headings read alike, the source gives them in different places.

Key:
KMT9 [1] = target: T1, KMT9 (Homo sapiens, UniProt Q9Y5N5); assay: Microscale thermophoresis (MST) KMT9 binding
T1 sequence (Q9Y5N5 1-214): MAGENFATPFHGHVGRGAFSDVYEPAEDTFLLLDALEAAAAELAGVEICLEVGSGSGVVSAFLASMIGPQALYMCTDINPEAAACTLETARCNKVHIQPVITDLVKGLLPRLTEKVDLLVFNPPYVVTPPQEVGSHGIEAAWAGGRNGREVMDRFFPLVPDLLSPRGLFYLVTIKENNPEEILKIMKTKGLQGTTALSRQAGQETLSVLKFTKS
T1 sequence (Q9UI30 1-120 isoform Q9UI30-2 partner): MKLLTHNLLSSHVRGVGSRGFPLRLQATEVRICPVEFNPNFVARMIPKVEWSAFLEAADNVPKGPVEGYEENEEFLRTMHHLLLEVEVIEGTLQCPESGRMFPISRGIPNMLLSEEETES
Outline: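 Kd from microscale thermophoresis: compound series against 20 nM His-KMT9 labelled via RED-Tris-NTA, buffer 25 mM HEPES (pH 7.5)/100 mM NaCl/1 mM DTT/0.05% Tween, 40% MST power, 100% LED. Reported as classes: A ≤10 nM, B >10–100 nM, C >100–1000 nM, D >1000 nM.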

KMT9 [2] = target: T1, KMT9; assay: KMT9 methyltransferase inhibition assay, MTaseGlo luminescence (from entry 155); assay type: biochemical; conditions: 100 nM KMT9, 5 μM ETF1, 1 μM SAM
Procedure: For the compounds from entry 155 on in Table 1, the following procedure was used to determine IC50 values: The assay was carried out in white, opaque 384-well OptiPlates (PerkinElmer). For IC50 determination, a 2.5x substrate mix (final assay concentrations: 5 μM ETF1, 1 μM SAM and 1x MTaseGlo Reagent), a 2.5x KMT9 solution (final assay concentration 100 nM) and a 5x inhibitor stock 1:1 dilution series (concentration according to the desired range; dilution series was prepared in assay buffer containing 10% DMSO to obtain a final DMSO concentration of 2% in the assay) were prepared. 2 μL of 5x inhibitor stock and 4 μL of 2.5x KMT9 were pipetted, the plate was spun down at 700 rpm for 1 min using a Hettich UNIVERSAL 320 centrifuge and incubated at room temperature (around 25° C.) for 15 min. The reaction was initiated by adding 4 μL of 2.5x substrate mix, the plate was spun down as described before and incubated at 30° C. for 2 h. Afterwards, 10 μL of 2× MTaseGlo Detection solution was added, the plate was centrifuged as described above and incubated for 60 min at room temperature. Luminescence was measured using a PerkinElmer EnVision 2102 Multilabel Reader. Calculation of inhibition and data fitting was carried out as for entries 1-154. described above.
For the results of the methyltransferase inhibition assay shown as “Inhibition” in Table 1, “I” represents an IC50 less than 0.1 μM, “II” represents an IC50 equal or higher than 0.1 μM and less than 1 μM, “III” represents an IC50 equal or higher than 1 µM and less than 10 µM and “IV” represents an IC50 equal or higher than 10 µM

KMT9 [3] = target: T1, KMT9; assay: KMT9 thermal shift assay (SyproOrange); assay type: binding; conditions: 500 µM compound
Outline: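 ΔTm versus DMSO-only control is reported in bins (>20 K, 15–20 K, 10–15 K, ≤10 K), using Tm from Boltzmann sigmoidal fits of SyproOrange melt curves. KMT9 with compound in pH 8.5 BTP buffer containing MgCl2 and DTT was preincubated at 25° C, then ramped 1° C per 15 s up to 95° C.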

KMT9 [4] = target: T1, KMT9; assay: KMT9 methyltransferase inhibition assay, 3H-SAM scintillation (entries 1-154); assay type: biochemical; conditions: entries 1-154: 3H-SAM assay, 25 nM KMT9, 5 μM ETF1
Outline: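 Tritium transfer from SAM (0.3 μM 3H-SAM, 0.7 μM unlabelled, final) to 5 μM ETF1 fragment by 25 nM KMT9 was measured after 2 h at 30° C, pH 8.5. Precipitated peptide was collected on filters and scintillation counted; IC50 came from a four-parameter fit of inhibition normalised to controls.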

[5] = His-tag labelled KMT9 20 nM, read-out: MST (Kd)
[6] = MTaseGlo procedure (entries from 155), read-out: Inhibition (IC50)
[7] = 2 μM KMT9, read-out: Thermal shift (ΔTm)
[8] = microscale thermophoresis, His-tag labelled KMT9 (20 nM), read-out: MST
[9] = ΔTm, 2 μM KMT9, 5X SO, read-out: Thermal shift

SMILES	Kd (KMT9 [1]; [5]) [nM]	IC50 (KMT9 [2]; [6]) [nM]	ΔTm at 500 µM (KMT9 [3]; [7]) [°C]	Kd (KMT9 [1]; His-tag labelled KMT9 20 nM, Kd class, read-out: MST) [nM]	IC50 (KMT9 [2]; IC50 class, MTaseGlo procedure (entries from 155 on), read-out: Inhibition) [nM]	Kd (KMT9 [1]; [8]) [nM]	ΔTm at 500 µM (KMT9 [3]; [9]) [°C]	IC50 (KMT9 [4]) [µM]
C=Cc1cn([C@@H]2C[C@H](CNCCCNCCc3ccccc3)[C@@H](O)[C@H]2O)c2ncncc12 [Compound 608, (1R,2S,3R,5R)-3-{5-ethenylpyrrolo[2,3-d]pyrimidin-7-yl}-5-[({3-[(2-phenylethyl)amino]propyl}amino)methyl]cyclopentane-1,2-diol]	–	–	–	–	–	100 to 1000	≤ 10	> 10
CCc1cn([C@@H]2C[C@H](CNCCCNCCc3ccccc3)[C@@H](O)[C@H]2O)c2ncncc12 [Compound 609, (1R,2S,3R,5R)-3-{5-ethylpyrrolo[2,3-d]pyrimidin-7-yl}-5-[({3-[(2-phenylethyl)amino]propyl}amino)methyl]cyclopentane-1,2-diol]	–	–	–	–	–	100 to 1000	≤ 10	> 10
C=Cc1cn([C@@H]2C[C@H](CNCCCNCCc3ccccc3)[C@@H](O)[C@H]2O)c2ncnc(C)c12 [Compound 610, (1R,2S,3R,5R)-3-(4-Methyl-5-vinyl-7H-pyrrolo[2,3-d]pyrimidin-7-yl)-5-(((3-(phenethylamino)propyl)amino)methyl)cyclopentane-1,2-diol]	–	–	–	–	–	> 1000	≤ 10	> 10
O=S(=O)(c1ccccc1)n1ccc(-c2cn([C@@H]3C[C@H](CNCCCNCCc4ccccc4)[C@@H](O)[C@H]3O)c3ncncc23)n1 [Compound 614, (1S,2R,3R,5R)-3-(((3-(Phenethylamino)propyl)amino)methyl)-5-(5-(1-(phenylsulfonyl)-1H-pyrazol-3-yl)-7H-pyrrolo[2,3-d]pyrimidin-7-yl)cyclopentane-1,2-diol]	–	–	–	–	–	100 to 1000	10 to 15	1 to 10
CNC(=O)[C@H]1C[C@@H](n2cc3c4c(ncnc42)NCCC3)[C@H](O)[C@@H]1O [Compound 624, (1S,2R,3S,4R)-2,3-Dihydroxy-N-methyl-4-(6,7,8,9-tetrahydro-2H-2,3,5,6-tetraazabenzo[cd]azulen-2-yl)cyclopentane-1-carboxamide]	–	–	–	–	–	> 1000	≤ 10	> 10
CN(C)C(=O)[C@H]1C[C@@H](n2cc3c4c(ncnc42)NCCC3)[C@H](O)[C@@H]1O [Compound 625, (1S,2R,3S,4R)-2,3-Dihydroxy-N,N-dimethyl-4-(6,7,8,9-tetrahydro-2H-2,3,5,6-tetraazabenzo[cd]azulen-2-yl)cyclopentane-1-carboxamide]	–	–	–	–	–	> 1000	≤ 10	> 10
NC[C@H]1C[C@@H](n2cc3c4c(ncnc42)NC(=O)CC3)[C@H](O)[C@@H]1O [Compound 626, 2-((1R,2S,3R,4R)-4-(Aminomethyl)-2,3-dihydroxycyclopentyl)-2,6,8,9-tetrahydro-7H-2,3,5,6-tetraazabenzo[cd]azulen-7-one]	–	–	–	–	–	> 1000	≤ 10	> 10
O=C1CCc2cn([C@@H]3C[C@H](CNCCCNCCc4ccccc4)[C@@H](O)[C@H]3O)c3ncnc(c23)N1 [Compound 627, 2-((1R,2S,3R,4R)-2,3-dihydroxy-4-(((3-(phenethylamino)propyl)amino)methyl)cyclopentyl)-2,6,8,9-tetrahydro-7H-2,3,5,6-tetraazabenzo[cd]azulen-7-one]	–	–	–	–	–	100 to 1000	≤ 10	> 10
CC1CCNc2ncnc3c2c1cn3[C@@H]1C[C@H](CN)[C@@H](O)[C@H]1O (stereo partly drawn) [Compound 629, (1S,2R,3R,5R)-3-(Aminomethyl)-5-(9-methyl-6,7,8,9-tetrahydro-2H-2,3,5,6-tetraazabenzo[cd]azulen-2-yl)cyclopentane-1,2-diol]	–	–	–	–	–	> 1000	≤ 10	> 10
NC[C@H]1C[C@@H](n2cc3c4c(ncnc42)NCCCC3)[C@H](O)[C@@H]1O [Compound 630, (1S,2R,3R,5R)-3-(Aminomethyl)-5-(7,8,9,10-tetrahydro-2,3,5,6-tetraazacycloocta [cd]inden-2 (6H)-yl)cyclopentane-1,2-diol]	–	–	–	–	–	> 1000	≤ 10	> 10

The remaining lines, values ahead:

Kd (KMT9 [1]; [5]) [nM]	IC50 (KMT9 [2]; [6]) [nM]	ΔTm at 500 µM (KMT9 [3]; [7]) [°C]	Kd (KMT9 [1]; His-tag labelled KMT9 20 nM, Kd class, read-out: MST) [nM]	IC50 (KMT9 [2]; IC50 class, MTaseGlo procedure (entries from 155 on), read-out: Inhibition) [nM]	Kd (KMT9 [1]; [8]) [nM]	ΔTm at 500 µM (KMT9 [3]; [9]) [°C]	IC50 (KMT9 [4]) [µM]	SMILES
≤ 10	100 to 1000	> 20	–	–	–	–	–	Nc1nc(Cl)nc2c1c(Br)cn2[C@@H]1CC(CNCCCNCCc2ccc(F)cc2)[C@@H](O)[C@H]1O (mixture of isomers) [Compound 547, (1R,2S,3R)-3-(4-amino-5-bromo-2-chloro-7H-pyrrolo[2,3-d]pyrimidin-7-yl)-5-(((3-((4-fluorophenethyl)amino)propyl)amino)methyl)cyclopentane-1,2-diol]
≤ 10	1000 to 10000	10 to 15	–	–	–	–	–	O[C@@H]1[C@H](O)C(CNCCCNCCc2ccc(F)cc2)C[C@H]1n1cc(-c2cccs2)c2cnc(Cl)nc21 (mixture of isomers) [Compound 581, (1R,2S,3R)-3-(2-chloro-5-(thiophen-2-yl)-7H pyrrolo[2,3-d]pyrimidin-7-yl)-5-(((3-((4-fluorophenethyl)amino)propyl)amino)methyl)cyclopentane-1,2-diol]
–	–	–	100 to 1000	1000 to 10000	–	–	–	O[C@@H]1[C@H](O)[C@@H](C2CCCN(CC3CC3)C2)C[C@H]1n1cc(-c2nc(Cc3ccccc3)cs2)c2cnc(Cl)nc21 (stereo partly drawn) [Compound 516, (1R,2S,3R,5R)-3-(5-(4-benzylthiazol-2-yl)-2-chloro-7H-pyrrolo[2,3-d]pyrimidin-7-yl)-5-(1-(cyclopropylmethyl)piperidin-3-yl)cyclopentane-1,2-diol]
–	–	–	–	–	> 1000	≤ 10	> 10	CCc1cn([C@@H]2C[C@H](CNCCCNCCc3ccccc3)[C@@H](O)[C@H]2O)c2ncnc(C)c12 [Compound 611, (1R,2S,3R,5R)-3-(5-ethyl-4-methyl-7H-pyrrolo[2,3-d]pyrimidin-7-yl)-5-(((3-(phenethylamino)propyl)amino)methyl)cyclopentane-1,2-diol]
–	–	–	–	–	> 1000	≤ 10	> 10	C=Cc1cn([C@@H]2C[C@H](CNCCCNCCc3ccccc3)[C@@H](O)[C@H]2O)c2ncnc(Cl)c12 [Compound 612, (1R,2S,3R,5R)-3-{4-chloro-5-ethenylpyrrolo[2,3-d]pyrimidin-7-yl}-5-[{{3-[(2-phenylethyl)amino]propyl}amino)methyl]cyclopentane-1,2-diol]
–	–	–	–	–	> 1000	≤ 10	> 10	CCc1cn([C@@H]2C[C@H](CNCCCNCCc3ccccc3)[C@@H](O)[C@H]2O)c2ncnc(Cl)c12 [Compound 632, (1R,2S,3R,5R)-3-(4-chloro-5-ethyl-7H-pyrrolo[2,3-d]pyrimidin-7-yl)-5-(((3-(phenethylamino)propyl)amino)methyl)cyclopentane-1,2-diol]
–	–	–	–	–	> 1000	≤ 10	1 to 10	O[C@@H]1[C@@H](CNCCCNCCc2ccccc2)C[C@@H](n2cc(-c3[nH]ncc3Cl)c3cncnc32)[C@@H]1O [Compound 633, (1R,2S,3R,5R)-3-(5-(4-Chloro-1H-pyrazol-5-yl)-7H-pyrrolo[2,3-d]pyrimidin-7-yl)-5-(((3-(phenethylamino)propyl)amino)methyl)cyclopentane-1,2-diol]
